Here are results for two molecules from publication PMC11157491, “Novel Alaninamide Derivatives with Drug-like Potential for Development as Antiseizure and Antinociceptive Therapies—In Vitro and In Vivo Characterization” (ACS Chemical Neuroscience, 2024).

Series [1] can be described thus: Metabolic stability in human liver microsomes. It is filed as in vitro ADME. As to conditions: human, human liver microsomes; HLMs, 120 min; read-out: metabolic stability (% remaining after the reaction with HLMs). The text has this:
Molecular mass Molecular mass of the
Substrate (m/z) metabolite (m/z) Metabolic pathway
* Reference unstable drug; metabolic stability determined using the same procedure published previously
On the technique in general: Liver microsomes are vesicles of endoplasmic reticulum, rich in cytochrome P450 enzymes.

Series [2] relates to mice. As to the kind of experiment: Oxaliplatin (OXPT)-induced peripheral neuropathy, von Frey test. Type of series: in vivo. The procedure:
The method is based on measuring the mean force that caused the paw withdrawal reaction, i.e., pain threshold. […] In the group treated with 28 at a dose of 25 mg/kg (Figure 6C), the initial value of 5.84 ± 0.43 (baseline) was decreased to the value of 2.78 ± 0.34 (47.6% of the baseline) and 3.39 ± 0.36 (58.0% of the baseline) in the early and late phases, respectively. […] In the group treated with the test compound at a dose of 75 mg/kg, the initial value of 6.17 ± 0.56 decreased to the values of 2.93 ± 0.45 (47.5% of the baseline) and 3.61 ± 0.28 (58.5% of the baseline) in the early and late phases, respectively.
The experimental groups consisted of 10 adult male Albino Swiss mice (CD-1, 18–25 g). Each animal was tested only once. Immediately after the assay, the animals were sacrificed by cervical dislocation. Behavioral measurements were observed by trained observers. The in vivo antinociceptive assays were in accordance with Polish regulations and the European Union Directive of 22 Sept 2010 (2010/63/EU). All procedures were carried out according to the rules of the International Council on Laboratory Animal Science (ICLAS) and were approved by the Local Ethics Committee in Cracow, Poland (104/2015, 279/2019, and 614/2022). The tested substances were suspended in a 1% aqueous solution of Tween 80 and were injected i.p. 30 min prior to the test. Control group animals (negative control) were administered with an appropriate amount of vehicle (Tween 80, 1% aqueous solution, i.p.) 30 min prior to the test. […] Before formalin application, different groups of animals were injected i.p. with vehicle (10 mL/kg, negative control). The in vivo procedure for the model of capsaicin-induced nociception was previously reported;[67] the animals were pretreated with vehicle (10 mL/kg, negative control), and the dose–response of investigated compounds was evaluated at 12.5, 25, and 50 mg/kg.
Data are presented as means ± standard error of the mean (SEM). GraphPad Prism Software (v.5) was used to analyze the vast majority of data. Statistically significant differences between groups were calculated using one-way analysis of variance (ANOVA) and the post hoc Dunnett’s multiple comparison test or two-way analysis of variance (ANOVA). The criterion for significance was set at p < 0.05. The log-probit method was applied to statistically determine the ED50 values with 95% confidence limits.

The subject of series [3] is mice. Put plainly: PTZ-induced kindling. Type of series: in vivo. As to conditions: for percentage of fully kindled mice: PTZ 40 mg/kg; for mean seizure severity score: 40 mg/kg. On the procedure:
The percentage of fully kindled mice in the control group was 77%. […] These slight differences were not statistically significant as compared to the PTZ control group.
Data are shown as means of seizure severity ± SEM (n = 13–15 animals). The statistical significance was evaluated by a mixed-effect model for repeated measures followed by Tukey’s post hoc test: *p < 0.05, **p < 0.01, ***p < 0.001, and ****p < 0.0001 as compared to the control group (GraphPad Prism 8).
(§1) The procedure was performed as described in detail in our earlier studies.[15],[65] […] The seizure severity was scored using the modified Racine’s scale. […] 24 h after the last PTZ injection, animals were subjected to the locomotor activity test, the elevated plus maze test, and the forced swim test according to the methods described in detail elsewhere. After behavioral tests, animals were sacrificed and the brains were rapidly removed. Hippocampi and cortices were dissected, frozen, and stored at −80 °C until the assay of determination of GABA and glutamate concentration.
The mean seizure severity scores were calculated for all experimental groups after each PTZ injection and analyzed using a mixed-effect model for repeated measures with Tukey’s post hoc test. Fisher’s exact probability test was used to compare the percentage of fully kindled mice.

For series [4], the system named is mice. Put plainly: Formalin test. It is filed as in vivo. Particulars: Mus musculus, ip, 30 min before test. The text has this: One of the most useful screening methods for testing clinically relevant molecules is the formalin model. The local injection of formalin solution induces two distinct phases of the nociceptive response, which are associated with immediate activation of nociceptors (phase I) and sensitization of spinal reflex circuits (phase II).[41] It is important to note that during the second phase, there is also an inflammatory response to tissue damage. […] Thus, this model has been successfully used to assess the analgesic efficacy of a variety of compounds, including ASMs.[42]
The experimental groups consisted of 10 adult male Albino Swiss mice (CD-1, 18–25 g). Each animal was tested only once. Immediately after the assay, the animals were sacrificed by cervical dislocation. Behavioral measurements were observed by trained observers. […] The in vivo procedure for the model of capsaicin-induced nociception was previously reported;[67] the animals were pretreated with vehicle (10 mL/kg, negative control), and the dose–response of investigated compounds was evaluated at 12.5, 25, and 50 mg/kg.
Data are presented as means ± standard error of the mean (SEM). […] Statistically significant differences between groups were calculated using one-way analysis of variance (ANOVA) and the post hoc Dunnett’s multiple comparison test or two-way analysis of variance (ANOVA). […]

In series [5] the test system is PTZ-kindled mice. Put plainly: Behavioral tests in PTZ-kindled mice (locomotor activity, elevated plus maze, forced swim test). Type of series: in vivo. On the procedure:
As compared to the nonkindled control group, there were no changes in locomotor activity, as well as anxiety- and depressive-like behavior in the PTZ-kindled control group.
as §1
Figure S1. Acute effects of compound 26 (A) and 28 (B) on grip strength in mice. Both compounds were administered i.p. at a dose of 50 mg/kg, 30 min before the test. Control animals received vehicle. Data are presented as means ± SEM of grip strength expressed in mN/g of body weight (n = 10animals). The statistical significance was evaluated by a Student's t test (GraphPad Prism 8). […]
entries in the elevated plus maze test; (B) the percentage of the time spent in the open arms in the elevated plus maze test; (C) spontaneous locomotor activity; (D) total immobility duration in the forced swim test in mice subjected to the PTZ kindling procedure. PTZ (40 mg/kg, i.p.) was given three times a week, 30 min after […]
Behavioral tests were performed 24 h after the last PTZ injection. Data are shown as means ± SEM (n = 10–15 animals). The statistical significance was evaluated by one-way ANOVA followed by the Tukey’s post hoc test: *p < 0.05, (GraphPad Prism 8). […]

Series [6] deals with mice. Put plainly: Spontaneous locomotor activity. It is filed as in vivo. Particulars: all tested doses, i.p. 30 min before. The procedure: We aimed to test the influence of the test compound on spontaneous locomotor activity to investigate its sedative properties. The strong sedative activity of new compounds is considered an undesirable property, which may lead to an incorrect or ambiguous interpretation of the in vivo results.
Figure S3. […] The test compound or […]
vehicle (1% Tween 80 solution) were administered 30 min i.p. before the 30-min long evaluation of locomotor activity. The results are presented as bar plots showing the mean ± SEM. The statistical significance was evaluated by one-way ANOVA followed by Dunnett’s post hoc test: * p < 0.05, *** p < 0.001, n = 8–10 mice per […]
(1 picture or pasted object on this page, not shown here)

Where two headings read alike, the source gives them in different places.

Broadly, the fraction remaining is what is left of the initial amount, in per cent. In the case of `CC(=O)NC(C)C(=O)N1CCN(c2cccc(C(F)(F)F)c2)CC1` (stereo not shown) [Compound 26, N-(1-oxo-1-(4-(3-(Trifluoromethyl)phenyl)piperazin-1-yl)propan-2-yl)acetamide], the amount remaining at 2 h in series [1] is 93.5%.

Broadly, the ED50 is the midpoint of the dose-response relation. Regarding `CC(=O)NC(C)C(=O)N1CCN(c2cccc(OC(F)(F)F)c2)CC1` (stereo not shown) [Compound 28, N-(1-oxo-1-(4-(3-(Trifluoromethoxy)phenyl)piperazin-1-yl)propan-2-yl)acetamide], the “pain threshold after compound, % of the baseline” value in series [2] (25 mg/kg, early phase (3 h after OXPT)) came to 99.5%; in series [2] (50 mg/kg, early phase (3 h after OXPT)), 85.4%; in series [2] (50 mg/kg, late phase (7 days after OXPT)), 104.8%; in series [2] (75 mg/kg, early phase (3 h after OXPT)) it was 121.5%; in series [2] (75 mg/kg, late phase (7 days after OXPT)) it was 91.3%. In addition, the “percentage of fully kindled mice” value in series [3] (10 mg/kg i.p. every 24 h) is recorded as 71%; in series [3] (20 mg/kg i.p. every 24 h), 73%; in series [3] (40 mg/kg i.p. every 24 h), 47%. The results for the “mean seizure severity score” value in series [3] (after the first PTZ injection) and in series [3] (after the last PTZ injection) were 1.00 ± 0.00 and 3.40 ± 0.45, respectively. The ED50 in series [4] (read-out: ED50 formalin test phase I (acute phase)) turned out to be 34.3 mg/kg; in series [4] (read-out: ED50 formalin test phase II (late phase)), 22 mg/kg. The “decrease of total immobility duration in the forced swim test” value in series [5] (10 and 20 mg/kg, vs PTZ-kindled control) is listed as roughly 10%. The “locomotor activity and anxiety-related behavior” value in series [5] (repeated administration) is given as “did not affect”. For the same molecule, the spontaneous locomotor activity entry in series [6] is given as “decreased spontaneous locomotor activity”.
